The text below walks through data of patent US7655447B2, “ZSIG33-like polynucleotides” (ZymoGenetics, Inc., priority 2000, dated 2010).

The experiment has as its system antral portion of the stomach. In words: Gastric contractility: distance between transducing crystals on the antral stomach. The experiment is classed as in vivo, Sprague-Dawley rats. The conditions noted are these: urethane-anesthetized rats. An excerpt: Two male Sprague-Dawley rats, approximately 12 weeks old (Harlan, Indianapolis, Ind.) are anesthetized with urethane and their stomachs are exposed through a small abdominal incision. Two 2.4 mm transducing crystals (Sonometrics, Ontario, Canada) are placed on the antral portion of the stomach such that circular contractions could be monitored as a change in the distance between the two crystals. The crystals are attached with VETBOND TISSUE ADHESIVE (3M, St. Paul, Minn.). […] The amplitude of the NE-induced decrease is approximately 50% of the acetylcholine-induced increase in distance. Both responses are transient. A negative control of 10 μl of phosphate buffer solution (PBS) applied topically between the crystals has no effect. […] The ZS33LP at 1 μg induces a sustained, rhythmic increase and decrease in crystal distance.

Regarding `NC[C@H](O)c1ccc(O)c(O)c1` [norepinephrine], the “change in the distance between the two crystals (circular contractions)” value (10 μl of 1 μM applied topically to the stomach between the crystals) is recorded as “reduction in the distance between the two crystals”. In addition, for the setting “10 μl of 1 μM applied topically”, the “amplitude of the NE-induced decrease relative to the acetylcholine-induced increase in distance” value was “approximately 50%”.
